The target of one assay is T1, IDH2^R140Q (Homo sapiens, UniProt P48735, R140Q).
T1 sequence (P48735 40-452 R140Q): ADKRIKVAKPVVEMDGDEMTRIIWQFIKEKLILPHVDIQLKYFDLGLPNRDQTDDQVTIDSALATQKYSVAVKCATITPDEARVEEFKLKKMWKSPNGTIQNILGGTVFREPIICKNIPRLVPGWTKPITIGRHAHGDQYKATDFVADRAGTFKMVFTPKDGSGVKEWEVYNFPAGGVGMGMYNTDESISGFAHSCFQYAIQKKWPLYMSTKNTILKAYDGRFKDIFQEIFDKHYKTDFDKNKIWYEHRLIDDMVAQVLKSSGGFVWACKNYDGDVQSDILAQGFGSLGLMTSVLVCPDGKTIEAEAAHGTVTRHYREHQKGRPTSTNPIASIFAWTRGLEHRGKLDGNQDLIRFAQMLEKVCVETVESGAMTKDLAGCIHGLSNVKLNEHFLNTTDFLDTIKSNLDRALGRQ
The experiment in a line: Enzyme activity inhibition assay (fluorescence-based), IDH2 R140Q. Type of assay: biochemical. The conditions noted are these: numeric values. As for the experimental part: The inhibitory ability of the compounds on the enzyme activities of IDH1^R132H and IDH2^R140Qwas detected and expressed as the half inhibitory concentration (IC50) value. AG-881 was used as a positive control compound. In this experiment, compounds were screened on enzymes IDH1^R132H and IDH2^R140Q using a fluorescence-based method (initial concentration: 10000 nM, 3-fold dilution, 10 concentrations, and single-well detection). • (1) Preparation of 1×assay buffer. • (2) Preparation of compound concentration gradient: the compounds to be tested were assayed at an initial concentration of 10000 nM, with 3-fold dilution and 10 concentrations, and diluted into 200-fold the final concentration in 100% DMSO solution in a 384-well plate. • (3) 250 nL of DMSO and 250 nL of diluted compounds were transferred to a reaction plate with Echo 550. • (4) IDH2^R140Q enzyme detection: 25 μL of an IDH2^R140Q enzyme solution was added, and the mixture was incubated for 60 minutes; then 25 μL of a substrate solution was added, and the mixture was incubated for 150 minutes; then 25 μL of a detection buffer was added, and the mixture was shaken for 1 minute and incubated for 60 minutes; and finally, Synergy 2, Ex544/Em590 cutoff 590 was used for reading. • (5) IDH1^R132H enzyme detection: 40 μL of a mixture solution of an IDH1^R132H enzyme at the 1.25-fold final concentration and NADPH was added, and the mixture was incubated for 60 minutes; then 10 μL of a substrate solution at the 5-fold final concentration was added, and the mixture was incubated for 90 minutes; then 25 μL of a detection buffer at the 3-fold final concentration was added, and the mixture was shaken for 1 minute. and finally, Synergy 2, Ex544/Em590 cutoff 590 was used for reading. • (8) Inhibition rate calculation, formula: % Inhibition=(RFU_sample−RFU_min)/(RFU_max−RFU_min)*100%, wherein RFU-sample represents the fluorescence intensity of a sample; RFU-min represents the average value of negative control wells and represents the fluorescence intensity with an enzyme; and RFU-max represents the average value of positive control wells and represents the fluorescence intensity without an enzyme. The curve fitting was performed using Graphpad Prism software to obtain IC50 values, and the test results were as shown in table 2.

For a further assay, the target named is IDH1^R132H (Homo sapiens, UniProt O75874, R132H). The assay can be described thus: 2-HG assay in cells (U87 cell line stably transfected with IDH1-R132H). Type of assay: cell-based. To be noted: 72 hours, numeric values, read-out: 2-HG in medium (IC50, nM) (IDH1^R132H). As for the experimental part:
The compounds were detected for the inhibition of 2-HG production in the U87 cell line stably transfected with IDH1-R132H and the culture supernatant of TF-1 cells stably transfected with IDH2-R140Q. • (1) The cultured cells were collected by centrifugation, then suspended in a cell culture solution, counted, and seeded in a 96-well cell culture plate at 160 μL of cell suspension/well (20000 cells/well for U87-IDH1-R132H; 10000 cells/well for TF-1-IDH2-R140Q). • (2) A 96-well plate dilution was taken, and the compounds to be tested were diluted in a gradient manner in DMSO and a cell culture solution; and then 40 μL of the gradient-diluted compounds to be tested were added to the 96-well plate on which cells have been plated. […] Finally, the plate was cultured in a 37° C. incubator containing 5% CO2. • (3) After the compounds were incubated with the cells for 72 hours, the cell culture plate was taken out and centrifuged at 1500 rpm for 5 minutes, and then 100 μL of the medium supernatant was aspirated for 2-HG detection. • (4) 2-HG detection: the cell supernatant was diluted with purified water, 30 μL of the diluted sample was taken into a 1.5 ml centrifuge tube, and 200 μL of the internal standard solution was added. The mixture was mixed uniformly by vortex and centrifuged at 3200 rpm at 4° C. for 15 minutes. 100 μL of the supernatant solution was diluted with water at a 1:1 ratio and then detected by LC-MS. Analyte Peak Area was used to represent the 2-HG levels. • (5) Inhibition rate calculation, formula: % Inhibition=(1−Analyte Peak Area_sample/Analyte Peak Area_max)*100%, wherein Analyte Peak Area_sample represents the Analyte Peak Area of the sample to which the compound was added; Analyte Peak Area_max represents the average value of Analyte Peak Area of positive control wells (representing the absence of the compound). The curve fitting was performed using Graphpad Prism software to obtain IC50 values, and the test results were as shown in table 2.

Chain of IDH1^R132H (O75874 whole entry R132H): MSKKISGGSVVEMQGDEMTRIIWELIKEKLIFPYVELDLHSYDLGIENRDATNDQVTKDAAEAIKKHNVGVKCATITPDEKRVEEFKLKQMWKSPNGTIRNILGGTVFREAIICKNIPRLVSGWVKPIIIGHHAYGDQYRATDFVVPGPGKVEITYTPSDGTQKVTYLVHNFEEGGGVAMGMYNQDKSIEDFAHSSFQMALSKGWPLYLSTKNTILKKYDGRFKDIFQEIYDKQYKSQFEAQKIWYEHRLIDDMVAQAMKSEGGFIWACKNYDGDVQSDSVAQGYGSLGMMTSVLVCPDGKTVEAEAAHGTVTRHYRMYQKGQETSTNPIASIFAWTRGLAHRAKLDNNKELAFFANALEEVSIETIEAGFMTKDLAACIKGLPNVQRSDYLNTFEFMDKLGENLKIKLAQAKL

In the case of `C[C@@H](Nc1nc(N[C@H](C)C(F)(F)F)nc(-c2cc(F)c(N)c(Cl)n2)n1)C(F)(F)F` [Example 5, 6-(5-amino-6-chloro-4-fluoropyridin-2-yl)-N^2,N^4-bis((R)-1,1,1-trifluoropropyl-2-yl)-1,3,5-triazine-2,4-diamine], the IC50 – broadly, the concentration that gives 50% inhibition – came out at 190 nM at IDH2^R140Q and 0.5 nM on IDH1^R132H.

Source of the values: patent US20250051301A1, “MUTANT IDH1 AND IDH2 INHIBITOR AND APPLICATION THEREOF” (Betta Pharmaceuticals Co., Ltd, priority 2022, published 2025).
